Measured values published in US10016469B2, “Composition comprising antifungal agents for treating vulvovaginitis and vaginosis” (Two Lines Co., Ltd., priority 2015, dated 2018).

What was measured:
[1] = tested on: G. vaginalis, standard microorganism (ATCC 14018); test: Antibiotic disk diffusion assay; assay type: cell-based, Gardnerella vaginalis; conditions: G. vaginalis ATCC 14018, Columbia agar with 5% human red blood cell solution
Method: To screen antibiotics to which Gardnerella vaginalis (G. vaginalis) is sensitive, and are resistant to probiotics, antibiotics were tested using a disk diffusion assay.
(§1) Columbia agar containing a 5% human red blood cell solution was used as a media for Gardnerella vaginalis (G. vaginalis, ATCC 14018) and a MRS agar was used as a media for the strains of the present invention (S. denitnficans YH1 and L. crispatus YH2). As the antibiotic disk, a product manufactured by OXIOD was used.
(§2) As described above, augmentin, metronidazole, and clindamycin were applied to a wild-type Gardnerella vaginalis (G. vaginalis) strain obtained from 33 patients suffering from bacterial vaginosis and a standard microorganism (ATCC 14018) and subjected to a test using a disk diffusion assay.

S. denitrificans YH1 = test: Antibiotic disk diffusion assay; assay type: cell-based; conditions: S. denitrificans YH1, MRS agar
Method: (§3) To screen antibiotics to which Gardnerella vaginalis (G. vaginalis) is sensitive, and are resistant to probiotics, antibiotics were tested using a disk diffusion assay. Columbia agar containing a 5% human red blood cell solution was used as a media for Gardnerella vaginalis (G. vaginalis, ATCC 14018) and a MRS agar was used as a media for the strains of the present invention ([…]1 and L. crispatus YH2). As the antibiotic disk, a product manufactured by OXIOD was used.

L. crispatus YH2 = test: Antibiotic disk diffusion assay; assay type: cell-based, Lactobacillus crispatus; conditions: L. crispatus YH2, MRS agar
Method: as §3

[2] = tested on: wild-type Gardnerella vaginalis (G. vaginalis) strain obtained from 33 patients suffering from bacterial vaginosis; test: Antibiotic disk diffusion assay on clinical isolates; assay type: cell-based; conditions: for Diameter of inhibition zone per antibiotic, Average ± SD: average over the G. vaginalis strains of Table 11
From the text: as §1, §2

[3] = G. vaginalis strain 14-1, biotype 1
[4] = G. vaginalis strain 14-2, biotype 5
[5] = G. vaginalis strain 14-3, biotype 4
[6] = G. vaginalis strain 14-4, biotype 6
[7] = G. vaginalis strain 14-5, biotype 4
[8] = G. vaginalis strain 14-6, biotype 1
[9] = G. vaginalis strain 14-7, biotype 5
[10] = G. vaginalis strain 14-8, biotype 3
[11] = G. vaginalis strain 14-9, biotype 2
[12] = G. vaginalis strain 14-10, biotype 3
[13] = G. vaginalis strain 14-11, biotype 2
[14] = G. vaginalis strain 14-12, biotype 5
[15] = G. vaginalis strain 14-13, biotype 5
[16] = G. vaginalis strain 14-14, biotype 4
[17] = G. vaginalis strain 14-15, biotype 5
[18] = G. vaginalis strain 14-16, biotype 8
[19] = G. vaginalis strain 14-17, biotype 5
[20] = G. vaginalis strain 14-19, biotype 5
[21] = G. vaginalis strain 14-20, biotype 7
[22] = G. vaginalis strain 14-21, biotype 8
[23] = G. vaginalis strain 14-23, biotype 8
[24] = G. vaginalis strain 14-24, biotype 8
[25] = G. vaginalis strain 14-25, biotype 5
[26] = G. vaginalis strain 14-26, biotype 5
[27] = G. vaginalis strain 14-27, biotype 4
[28] = G. vaginalis strain 14-28, biotype 5
[29] = G. vaginalis strain 14-29, biotype 5
[30] = G. vaginalis strain 14-30, biotype 5
[31] = G. vaginalis strain 14-32, biotype 5
[32] = G. vaginalis strain 14-33, biotype 7
[33] = G. vaginalis strain 14-34, biotype 5
[34] = G. vaginalis strain 14-36, biotype 5
[35] = G. vaginalis strain 14-37, biotype 1

Row | Compound | diameter of inhibition zone [1] | diameter of inhibition zone (S. denitrificans YH1) | diameter of inhibition zone (L. crispatus YH2) | Diameter of inhibition zone per antibiotic [2, 3] | Diameter of inhibition zone per antibiotic [2, 4] | Diameter of inhibition zone per antibiotic [2, 5] | Diameter of inhibition zone per antibiotic [2, 6] | Diameter of inhibition zone per antibiotic [2, 7] | Diameter of inhibition zone per antibiotic [2, 8] | Diameter of inhibition zone per antibiotic [2, 9] | Diameter of inhibition zone per antibiotic [2, 10] | Diameter of inhibition zone per antibiotic [2, 11] | Diameter of inhibition zone per antibiotic [2, 12] | Diameter of inhibition zone per antibiotic [2, 13] | Diameter of inhibition zone per antibiotic [2, 14] | Diameter of inhibition zone per antibiotic [2, 15] | Diameter of inhibition zone per antibiotic [2, 16] | Diameter of inhibition zone per antibiotic [2, 17] | Diameter of inhibition zone per antibiotic [2, 18] | Diameter of inhibition zone per antibiotic [2, 19] | further results
1 | CC1(C)S[C@@H]2[C@H](NC(=O)[C@H](N)c3ccccc3)C(=O)N2[C@H]1C(=O)O [Ampicillin] | 10 mm | 0 mm | 0 mm |  |  |  |  |  |  |  |  |  |  |  |  |  |  |  |  |  | 
2 | CC1(C)S[C@@H]2[C@H](NC(=O)C(C(=O)O)c3ccccc3)C(=O)N2[C@H]1C(=O)O (stereo partly shown) [Carbenicillin] | 40 mm | 35 mm | 35 mm |  |  |  |  |  |  |  |  |  |  |  |  |  |  |  |  |  | 
3 | CO/N=C(\C(=O)N[C@@H]1C(=O)N2C(C(=O)O)=C(COC(C)=O)CS[C@H]12)c1csc(N)n1 [Cefotaxime] | 10 mm | 0 mm | 0 mm |  |  |  |  |  |  |  |  |  |  |  |  |  |  |  |  |  | 
4 | CCC[C@@H]1C[C@@H](C(=O)N[C@@H]([C@H]2O[C@H](SC)[C@H](O)[C@@H](O)[C@H]2O)[C@H](C)Cl)N(C)C1 [Clindamycin] | 55 mm |  |  | 50 mm | 60 mm | 55 mm | 50 mm | 45 mm | 45 mm | 60 mm | 50 mm | 50 mm | 55 mm | 60 mm | 50 mm | 55 mm | 50 mm | 60 mm | 60 mm | 55 mm | Diameter of inhibition zone per antibiotic [2, 20]: 55 mm; Diameter of inhibition zone per antibiotic [2, 21]: 50 mm; Diameter of inhibition zone per antibiotic [2, 22]: 50 mm; Diameter of inhibition zone per antibiotic [2, 23]: 55 mm; Diameter of inhibition zone per antibiotic [2, 24]: 50 mm; Diameter of inhibition zone per antibiotic [2, 25]: 55 mm; Diameter of inhibition zone per antibiotic [2, 26]: 65 mm; Diameter of inhibition zone per antibiotic [2, 27]: 55 mm; Diameter of inhibition zone per antibiotic [2, 28]: 60 mm; Diameter of inhibition zone per antibiotic [2, 29]: 65 mm; Diameter of inhibition zone per antibiotic [2, 30]: 65 mm; Diameter of inhibition zone per antibiotic [2, 31]: 60 mm; Diameter of inhibition zone per antibiotic [2, 32]: 55 mm; Diameter of inhibition zone per antibiotic [2, 33]: 60 mm; Diameter of inhibition zone per antibiotic [2, 34]: 60 mm; Diameter of inhibition zone per antibiotic [2, 35]: 60 mm; Diameter of inhibition zone per antibiotic, Average ± SD [2]: 55.45 ± 5.5 mm; Diameter of inhibition zone per antibiotic, Average ± SD ([2]; listed as clindamycin): 55.45±5.5 mm
5 | Cc1ncc([N+](=O)[O-])n1CCO [Metronidazole] | 0 mm |  |  | 27 mm | 0 mm | 40 mm | 35 mm | 35 mm | 32 mm | 0 mm | 0 mm | 0 mm | 0 mm | 0 mm | 0 mm | 0 mm | 35 mm | 0 mm | 25 mm | 0 mm | share of wild-type G. vaginalis strains on which no inhibitory effect was shown ([2]; 21 of 33 wild-type strains, metronidazole 50 μg/disc): 64%; share of Biotype 5 strains completely resistant ([2]; Biotype 5, 14 of 15 strains): 93%; Diameter of inhibition zone per antibiotic [2, 20]: 0 mm; Diameter of inhibition zone per antibiotic [2, 21]: 0 mm; Diameter of inhibition zone per antibiotic [2, 22]: 30 mm; Diameter of inhibition zone per antibiotic [2, 23]: 33 mm; Diameter of inhibition zone per antibiotic [2, 24]: 20 mm; Diameter of inhibition zone per antibiotic [2, 25]: 25 mm; Diameter of inhibition zone per antibiotic [2, 26]: 0 mm; Diameter of inhibition zone per antibiotic [2, 27]: 0 mm; Diameter of inhibition zone per antibiotic [2, 28]: 0 mm; Diameter of inhibition zone per antibiotic [2, 29]: 0 mm; Diameter of inhibition zone per antibiotic [2, 30]: 0 mm; Diameter of inhibition zone per antibiotic [2, 31]: 0 mm; Diameter of inhibition zone per antibiotic [2, 32]: 0 mm; Diameter of inhibition zone per antibiotic [2, 33]: 0 mm; Diameter of inhibition zone per antibiotic [2, 34]: 0 mm; Diameter of inhibition zone per antibiotic [2, 35]: 20 mm; zone of inhibition at 50 µg/disc ([2]; Gardnerella vaginalis, 12 sensitive wild-type strains, metronidazole 50 μg/disc, read-out: inhibition zones for the remaining 12 strains): 20 to 40 mm
6 | Augmentin | 60 mm |  |  | 60 mm | 33 mm | 40 mm | 45 mm | 40 mm | 60 mm | 40 mm | 50 mm | 35 mm | 35 mm | 60 mm | 35 mm | 30 mm | 40 mm | 45 mm | 45 mm | 35 mm | Diameter of inhibition zone per antibiotic [2, 20]: 40 mm; Diameter of inhibition zone per antibiotic [2, 21]: 60 mm; Diameter of inhibition zone per antibiotic [2, 22]: 50 mm; Diameter of inhibition zone per antibiotic [2, 23]: 35 mm; Diameter of inhibition zone per antibiotic [2, 24]: 50 mm; Diameter of inhibition zone per antibiotic [2, 25]: 60 mm; Diameter of inhibition zone per antibiotic [2, 26]: 50 mm; Diameter of inhibition zone per antibiotic [2, 27]: 50 mm; Diameter of inhibition zone per antibiotic [2, 28]: 30 mm; Diameter of inhibition zone per antibiotic [2, 29]: 40 mm; Diameter of inhibition zone per antibiotic [2, 30]: 55 mm; Diameter of inhibition zone per antibiotic [2, 31]: 50 mm; Diameter of inhibition zone per antibiotic [2, 32]: 45 mm; Diameter of inhibition zone per antibiotic [2, 33]: 40 mm; Diameter of inhibition zone per antibiotic [2, 34]: 40 mm; Diameter of inhibition zone per antibiotic [2, 35]: 60 mm; Diameter of inhibition zone per antibiotic, Average ± SD [2]: 44.9±9.5 mm; resistance of the G. vaginalis strains, in words ([2]; strains of Table 11): no strain was resistant
